Test results published in patent US8329454B2, “Device for detecting a cholinesterase-inhibiting substance comprising a hydrophilic photo-crosslinkable resin” (priority 2008, dated 2012).

Tested on: cholinesterase
Experiment: Visual detection with the cholinesterase detection device without oxidation treatment (Comparative Example 1, Example 2)
Type: biochemical
Details: Comparative Example 1: as Example 1 but no oxidation treatment (no NBS)
Procedure: This is a comparative experiment for confirming the effect of oxidation treatment (NBS solution suction treatment) in Example 1. In the same manner as in Example 1, the column was made to adsorb diazinone in the sample, and then not processed for oxidation treatment (NBS solution suction treatment), diazinone was eluted from the column. The eluate was added to the detection device, and an indoxyl acetate solution was added to the device.
The detection method was to follow the process shown in FIG. 3; however, since a carbamate agrichemical was the object to be detected, the NBS solution suction and discharge operation attained in Example 1 was omitted here.
As a sample, prepared was 10 mL of an aqueous solution of a carbaryl (NAC) standard liquid of a carbamate agrichemical having a diluted concentration of 10 ppb; and this was sucked in the syringe with a column chip connected to the tip thereof, as shown in FIG. 2.
The sucked solution was discharged in a beaker and again sucked, and this cycle was repeated three times whereby the sample NAC was adsorbed by the column. Subsequently, NAC was eluted from the column, and put into the device to undergo an enzyme inhibitory reaction for 5 minutes therein.
After 5 minutes, a coloring substrate of an indoxyl acetate solution was added to the device, and underwent coloration reaction for 5 minutes.
Other agrichemical substances were tested in the same manner as in Example 1 and Example 2, and the following results were obtained.

| Molecule | detection level |
| --- | --- |
| CCOP(=S)(OCC)Oc1cc(C)nc(C(C)C)n1 [diazinone] | 5 ppm |

Same assay, conditions: Example 2: 10 mL aqueous sample, adsorbed on column, no NBS step, 5 min inhibition, indoxyl acetate 5 min, no coloration

| Molecule | detected at a concentration level |
| --- | --- |
| CNC(=O)Oc1cccc2ccccc12 [carbaryl] | 10 ppb |

Same assay, conditions: Table 1, agrichemicals marked *, taken as tested in the same manner as Example 2 (no NBS oxidation)

| Molecule | Detection Level (ppb) |
| --- | --- |
| Cc1nc(N(C)C)nc(OC(=O)N(C)C)c1C [pirimicarb] | 8 ppb |
| CS/C(C)=N\OC(=O)N(C)SN(C)C(=O)O/N=C(\C)SC [thiodicarb] | 20 ppb |

Tested on: cholinesterase
Experiment: not given
Details: prior-art kit AT-10/AT-25 (Agriscreen Ticket 10/25) by NEOGEN; cited from earlier work

| Molecule | detection limit |
| --- | --- |
| CNC(=O)Oc1cccc2ccccc12 [carbaryl] | around 7.0 ppm |
| COP(=S)(OC)Oc1nc(Cl)c(Cl)cc1Cl [chlorpyrifos-methyl] | ~1.0 ppm |
| CCOP(=S)(OCC)Oc1cc(C)nc(C(C)C)n1 [diazinone] | ~2.0 ppm |
| CCOP(=S)(OCC)Oc1nc(Cl)c(Cl)cc1Cl [chlorpyrifos] | ~0.7 ppm |

Tested on: cholinesterase
Experiment: Visual detection with the cholinesterase detection device after on-column NBS oxidation (Example 1)
Details: Example 1: 10 mL aqueous sample, adsorbed on column, 1% NBS oxidation to oxon form, 5 min inhibition, indoxyl acetate 5 min, no coloration

| Molecule | detected at a concentration level |
| --- | --- |
| CCOP(=S)(OCC)Oc1cc(C)nc(C(C)C)n1 [diazinone] | 0.1 ppb |

Same assay, conditions: Table 1, tested in the same manner as Example 1 (NBS oxidation)

| Molecule | Detection Level (ppb) |
| --- | --- |
| CCN(CC)c1nc(C)cc(OP(=S)(OC)OC)n1 [pyrimiphos-methyl] | 20 ppb |
| COP(=S)(OC)SCn1nnc2ccccc2c1=O [azinphos-methyl] | 8 ppb |
| CNC(=O)/C=C(\C)OP(=O)(OC)OC [monocrotophos] | 100 ppb |
| COP1(=S)OCc2ccccc2O1 (centres unmarked) [salithion] | 100 ppb |
| CCOP(=S)(OCC)Oc1cnc2ccccc2n1 [quinalphos] | 0.1 ppb |
| CCOP(=S)(OCC)Oc1ccc([S+](C)[O-])cc1 (centres unmarked) [fensulfothion] | 100 ppb |
| CCOP(=S)(OCC)SCn1c(=O)oc2cc(Cl)ccc21 [phosalone] | 6 ppb |
| CCOP(=S)(OCC)Oc1ccc2c(C)c(Cl)c(=O)oc2c1 [coumafos] | 2 ppb |
| COP(=S)(OC)Oc1ccc([N+](=O)[O-])c(C)c1 [fenitrothion] | 40 ppb |
| CCCSP(=O)(OCC)SCCC [etoprophos] | 100 ppb |
| CCCOP(=O)(OCCC)Oc1ccc(SC)cc1 [propafos] | 1 ppb |
| COP(=S)(OC)Oc1nc(Cl)c(Cl)cc1Cl [chlorpyrifos-methyl] | 1 ppb |
| CCOP(=O)(OCC)O/C(=C\Cl)c1ccc(Cl)cc1Cl [chlorfenvinphos] | 40 ppb |
| CCOP(=S)(OCC)Oc1ccc([N+](=O)[O-])cc1 [parathion] | 0.8 ppb |
| CCOP(=S)(OCC)SCSCC [phorate] | 80 ppb |
| CCCSP(=S)(OCC)Oc1ccc(SC)cc1 (centres unmarked) [sulprofos] | 20 ppb |
| CCOP(=S)(OCC)SCSP(=S)(OCC)OCC [ethion] | 10 ppb |
| CCOP(=S)(OCC)SCSC(C)(C)C [terbufos] | 10 ppb |
| CCOP(=S)(Oc1ccc([N+](=O)[O-])cc1)c1ccccc1 (centres unmarked) [EPN] | 40 ppb |
| COP(=O)(OC)O/C(=C\Cl)c1ccc(Cl)cc1Cl [dimethylvinphos(Z)] | 100 ppb |
| CCOP(=S)(OCC)Oc1ccc(Cl)cc1Cl [dichlofenthion] | 100 ppb |
| CCOP(=S)(OCC)Oc1nc(Cl)c(Cl)cc1Cl [chlorpyrifos] | 0.2 ppb |
| etorifos | 10 ppb |
| COP(=O)(OC)O/C(=C/Cl)c1ccc(Cl)cc1Cl [dimethylvinphos(E)] | 100 ppb |
| CCOP(=S)(OCC)Oc1cc(-c2ccccc2)on1 [isoxathion] | 0.2 ppb |
| CCOP(=S)(NC(C)CC)Oc1cc(C)ccc1[N+](=O)[O-] (centres unmarked) [butamifos] | 100 ppb |
| CCOP(=S)(OCC)Oc1ccc(=O)n(-c2ccccc2)n1 [pyridaphenthion] | 1 ppb |
| CCOP(=S)(OCC)Oc1cc(Cl)c(Br)cc1Cl [bromofos-ethyl] | 10 ppb |
| CCOP(=S)(OCC)SCn1nnc2ccccc2c1=O [azinphos-ethyl] | 1 ppb |
